The target of assay [1] is T1, butyrylcholinesterase (BChE, from equine serum) (Equus caballus, UniProt P81908).
T1 construct: Butyrylcholinesterase (from equine serum) was bought from Sigma; purchased Sigma; host or cells: equine serum
Nature of the assay: Butyrylcholinesterase inhibition, Ellman's method. The note with it: for % Inhibition of BChE / inhibition at 50 µM: at 50 µM compound. Format: biochemical. For orientation: DTNB colorimetry detects thiols as they appear.

Assay [2] concerns the target T2, acetylcholinesterase (AChE, from Electrophorus electricus) (Electrophorus electricus, UniProt O42275).
T2 construct: purchased Fluka
The experiment in a line: Acetylcholinesterase inhibition, Ellman's method. In kind it is biochemical. The note with it: for % Inhibition of AChE / inhibition at 50 µM: at 50 µM compound.

The test system of assay [3] is acetylcholinesterase (AChE). The note with it: Figure 1, cited from earlier work.

Values joined by “and” are separate entries in the source; they are usually repeats but may differ in a detail not shown here. Identical values can stand only once. Counter-ions that a name gives are not always drawn. Like-named read-outs stand apart in the source and are kept apart here.

By inhibition is commonly meant the drop in the measured response relative to a control, in per cent. Low readings indicate a response near the control, high ones a response far below the control. As a reminder, the Ki is a measure of affinity in units of concentration, obtained from inhibition or displacement.

T2 sequence (O42275 24-633): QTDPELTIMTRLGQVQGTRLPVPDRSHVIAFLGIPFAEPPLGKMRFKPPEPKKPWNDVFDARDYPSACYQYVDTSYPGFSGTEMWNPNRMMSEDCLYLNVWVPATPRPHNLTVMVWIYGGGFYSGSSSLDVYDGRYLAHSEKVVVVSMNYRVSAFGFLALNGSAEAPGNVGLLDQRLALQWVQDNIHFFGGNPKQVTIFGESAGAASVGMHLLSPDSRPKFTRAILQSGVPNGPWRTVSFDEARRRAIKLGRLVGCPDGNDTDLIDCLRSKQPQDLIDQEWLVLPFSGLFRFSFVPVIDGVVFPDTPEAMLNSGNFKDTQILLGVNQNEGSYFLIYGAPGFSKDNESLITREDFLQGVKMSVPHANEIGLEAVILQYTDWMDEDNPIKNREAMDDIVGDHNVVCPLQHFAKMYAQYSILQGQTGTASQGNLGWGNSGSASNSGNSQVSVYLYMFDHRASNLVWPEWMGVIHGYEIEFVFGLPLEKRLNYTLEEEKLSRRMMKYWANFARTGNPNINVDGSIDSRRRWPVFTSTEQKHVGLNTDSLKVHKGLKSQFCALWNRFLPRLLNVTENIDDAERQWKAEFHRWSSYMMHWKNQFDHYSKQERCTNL
T1 sequence (P81908 whole entry): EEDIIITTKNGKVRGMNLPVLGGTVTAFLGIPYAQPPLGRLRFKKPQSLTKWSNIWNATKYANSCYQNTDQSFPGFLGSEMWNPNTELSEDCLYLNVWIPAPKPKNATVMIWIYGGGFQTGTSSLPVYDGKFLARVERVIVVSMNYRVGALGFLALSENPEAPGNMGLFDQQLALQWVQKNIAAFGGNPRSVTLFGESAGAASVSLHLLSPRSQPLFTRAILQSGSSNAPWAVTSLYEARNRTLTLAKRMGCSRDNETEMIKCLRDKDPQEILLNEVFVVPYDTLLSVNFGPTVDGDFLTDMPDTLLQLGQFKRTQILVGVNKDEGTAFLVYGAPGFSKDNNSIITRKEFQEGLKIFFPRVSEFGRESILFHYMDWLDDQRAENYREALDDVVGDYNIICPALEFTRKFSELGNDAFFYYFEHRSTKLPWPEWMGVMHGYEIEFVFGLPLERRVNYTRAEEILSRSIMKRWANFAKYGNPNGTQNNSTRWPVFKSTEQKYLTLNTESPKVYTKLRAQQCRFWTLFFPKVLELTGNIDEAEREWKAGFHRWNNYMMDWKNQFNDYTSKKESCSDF

Consider “1-(5-Deoxy-3-O-dodecyl-α-D-xylofuranos-5-yl)-3,7-dimethyl-3,7-dihydro-1H-purine-2,6-dione [Compound 18]”, for which the “% Inhibition of BChE” value in assay [1] is 19.6%. For the same compound, in assay [2], the “% Inhibition of AChE” value turned out to be 14.5%.

Consider `CO[C@H]1O[C@H](Cn2c(=O)c3c(ncn3C)n(C)c2=O)[C@@H](OC(C)=O)[C@H](OC(C)=O)[C@H]1OC(C)=O` [A], for which the “inhibition of AChE (in words)” value in assay [3] (theobromine 6′-isonucleoside) is reported as “good inhibitory effect”.

`CC(=O)O[C@H]1C(NS(C)(=O)=O)O[C@H](Cn2c(=O)c3c(ncn3C)n(C)c2=O)[C@@H]1OCc1ccccc1` (some centres unmarked) [B]: the “inhibition of AChE (in words)” value in assay [3] (N-isonucleosidyl sulfonamide) is “micromolar and selective inhibition of AChE”.

For the compound `CCCCCCCCCCCCO[C@@H]1[C@H]2OC(C)(C)O[C@H]2O[C@@H]1Cn1c(=O)c2c(ncn2C)n(C)c1=O` [Compound 3, 1-(5-Deoxy-3-O-dodecyl-1,2-O-isopropylidene-α-D-xylofuranos-5-yl)-3,7-dimethyl-3,7-dihydro-1H-purine-2,6-dione], the values for the inhibition at 50 µM in assay [1] and in assay [2] were 11.7% and 13.8%, respectively.

As to `CCCCCCCCCCCCO[C@@H]1[C@H]2OC(C)(C)O[C@H]2O[C@@H]1Cn1cnc2c(N)ncnc21` [Compound 4, 9-(5-Deoxy-3-O-dodecyl-1,2-O-isopropylidene-α-D-xylofuranos-5-yl)adenine], the results for the inhibition at 50 µM in assay [1] and in assay [2] were 11.9% and 16.3%, respectively.

On to `CCCCCCCCCCCCO[C@@H]1[C@H]2OC(C)(C)O[C@H]2O[C@@H]1Cn1cnc2c(Cl)nc(NC(C)=O)nc21` [Compound 5, 2-Acetamido-6-chloro-9-(5-deoxy-3-O-dodecyl-1,2-O-isopropylidene-α-D-xylofuranos-5-yl)purine], for which the inhibition at 50 µM is 32.5% in assay [1] and 25.3% in assay [2].

On to `CCCCCCCCCCCCO[C@@H]1[C@H]2OC(C)(C)O[C@H]2O[C@@H]1Cn1ccc(=O)[nH]c1=O` [Compound 6, 1-(5-Deoxy-3-O-dodecyl-1,2-O-isopropylidene-α-D-xylofuranos-5-yl)uracil], for which the inhibition at 50 µM is 28.5% in assay [1] and 22.5% in assay [2].

For the compound `CCCCCCCCCCCCO[C@@H]1[C@H]2OC(C)(C)O[C@H]2O[C@@H]1Cn1c(=O)cc[nH]c1=O` [Compound 7, 3-(5-deoxy-3-O-dodecyl-1,2-O-isopropylidene-α-D-xylofuranos-5-yl)uracil], the inhibition at 50 µM in assay [1] was 7.5%; in assay [2] it was 17.8%.

With `CCCCCCCCCCCCO[C@@H]1[C@H]2OC(C)(C)O[C@H]2O[C@@H]1Cn1ccc(=O)n(C[C@H]2O[C@@H]3OC(C)(C)O[C@@H]3[C@H]2OCCCCCCCCCCCC)c1=O` [Compound 8, 1,3-bis-(5-deoxy-3-O-dodecyl-1,2-O-isopropylidene-α-D-xylofuranos-5-yl)uracil], the figures for the inhibition at 50 µM in assay [1] and in assay [2] were 32.8% and 26.1%, respectively.

In turn, `CCCCCCCCCCCCO[C@@H]1[C@H]2OC(C)(C)O[C@H]2O[C@@H]1COc1ccnc(OC[C@H]2O[C@@H]3OC(C)(C)O[C@@H]3[C@H]2OCCCCCCCCCCCC)n1` [Compound 9, 2,4-bis-O-(5-deoxy-3-O-dodecyl-1,2-O-isopropylidene-α-D-xylofuranos-5-yl)uracil] yielded an inhibition at 50 µM in assay [1] of 29.8%. In addition, in assay [2], the “Ki′ (uncompetitive inhibition), AChE” value was 103.0 µM and 103.0 ± 4.3 µM; the “type of inhibition, AChE” value is listed as “mixed-type”; the inhibition at 50 µM was 40.3%. Also, the Ki in assay [2] (read-out: Ki (competitive inhibition), AChE) worked out at 17.5 ± 0.7 µM.

For the compound `CCCCCCCCCCCCO[C@H]1[C@@H](Cn2c(=O)c3c(ncn3C)n(C)c2=O)OC(O)[C@@H]1O` (stereo partly drawn) [Compound 10, 1-(5-Deoxy-3-O-dodecyl-α,β-D-xylofuranos-5-yl)-3,7-dimethyl-3,7-dihydro-1H-purine-2,6-dione], the inhibition at 50 µM in assay [1] worked out at 22.9%; in assay [2], 2.6%.

On to `CCCCCCCCCCCCO[C@H]1[C@@H](Cn2c(=O)c3c(ncn3C)n(C)c2=O)OC(NS(C)(=O)=O)[C@@H]1OC(C)=O` (stereo partly drawn) [Compound 12, N-[2-O-Acetyl-1,5-dideoxy-5-(3,7-dimethyl-3,7-dihydro-2,6-dioxo-1H-purin-1-yl)-3-O-dodecyl-α,β-D-xylofuranos-1-yl]methanesulfonamide], for which, in assay [1], the “inhibitory effect on BChE (in words)” value is on record as “devoid of any inhibitory effects” and the inhibition at 50 µM is 4.6%. In addition, in assay [2], the “inhibitory effect on AChE (in words)” value was “devoid of any inhibitory effects” and the inhibition at 50 µM is 1%.

For `CCCCCCCCCCCCO[C@@H]1[C@@H](OC(C)=O)[C@@H](N=[N+]=[N-])O[C@@H]1Cn1c(=O)c2c(ncn2C)n(C)c1=O` [Compound 13-α, 1-(2-O-Acetyl-1-azido-1,5-dideoxy-3-O-dodecyl-α-D-xylofuranos-5-yl)-3,7-dimethyl-3,7-dihydro-1H-purine-2,6-dione], in assay [1], the “inhibitory effect on BChE (in words)” value is recorded as “devoid of any inhibitory effects” and the inhibition at 50 µM worked out at 35%. In assay [2], the “inhibitory effect on AChE (in words)” value is given as “devoid of any inhibitory effects” and the inhibition at 50 µM is 18.9%.

On to `COc1ccc2c3c1O[C@H]1C[C@@H](O)C=C[C@@]31CCN(C)C2` [Galantamine hydrobromide, galantamine hydrobromide, reference compound], for which, in assay [1], the “type of inhibition, BChE” value is on record as “competitive” and 50 µM produced 86.3% inhibition.

With “N-[2,4-Di-O-acetyl-1,6-dideoxy-6-(3,7-dimethyl-3,7-dihydro-2,6-dioxo-1H-purin-1-yl)-3-O-dodecyl-α,β-D-glucopyranos-1-yl]methanesulfonamide [Compound 22]”, the “% Inhibition of BChE” value in assay [1] (50 µM) was 53% and 52.6%. Also, in assay [2], the “% Inhibition of AChE” value came to 28.3%.

Source of the values: publication PMC6790002, “Synthesis and Biological Evaluation of Structurally Varied 5′-/6′-Isonucleosides and Theobromine-Containing N-Isonucleosidyl Derivatives” (Pharmaceuticals, 2019).
